Data as given in US4929736A, “Latent isocynate derivatives useful for deactivating enzymes” (Board of Trustees of the Wichita State University, priority 1986, dated 1990).

Experiments:
[1] = tested on: thromboxane synthetease; details: cited from earlier work
[2] = target: Porcine pancreatic elastase (PPE) (Sus scrofa, UniProt P00772); test: Spectrophotometric assay of PPE inactivation (in vitro); type: biochemical; details: two tenths umoles
[3] = target: T1, Human leukocyte elastase (HLE) (Homo sapiens, UniProt P08246); test: Spectrophotometric assay of HLE inactivation (in vitro); type: biochemical
T1 construct: purchased Elastin Products, St. Louis, Mo
T1 sequence (P08246 30-267): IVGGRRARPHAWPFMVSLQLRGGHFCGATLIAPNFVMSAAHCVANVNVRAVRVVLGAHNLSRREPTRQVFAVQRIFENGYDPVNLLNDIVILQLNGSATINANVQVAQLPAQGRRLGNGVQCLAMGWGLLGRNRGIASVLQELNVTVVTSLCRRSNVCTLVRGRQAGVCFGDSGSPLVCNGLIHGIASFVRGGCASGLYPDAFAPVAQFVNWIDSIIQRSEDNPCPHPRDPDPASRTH

[4] = tested on: ICR mice; test: Tolerance of mice to IP or IT injection of inhibitor; type: in vivo, mouse; details: all treatments of Table VIII
Source text: (§1) Animal models of emphysema include intratracheal administration of an elastolytic protease (PPE, HLE or papain) to cause a slowly progressive, destructive lesion in the lung. These proteases induce a lesion that is evident in the first few hours.
The method used for in vivo evaluation involved injection of a test solution into the trachea, or directly into one bronchus. In general, the method of Hayes et al J. Pathol, 117, 1-14 (1975) was used. A fine teflon tubing was connected to a pipette and inserted into the trachea after the animals were lightly anesthetized by IP injection. The contents of the pipette were then ejected. […] It was further determined that instillation of 40 ug of PPE in the same volume causes an unambigous emphysematous lesion which is restricted to the instilled lobe. After 7 to 10 days to allow inflamation to subside, the animals were sacrificed followed by exsanguination via the descending aorta. PPE was used rather than HLE to produce the lesion because emphysema developes over a much shorter period of time. Emphysema then was induced under acute condition so that the effects of the compounds tested could be investigated under the time constraints of a laboratory procedure. […]
Initially, the tolerance of 30-40 gram male ICR mice to intraperitoneal (IP) or intratracheal (IT) injection of inhibitor (Compound 5, Table I) was evaluated.

[5] = tested on: PPE-induced emphysema in ICR mice; test: Simultaneous intratracheal instillation of PPE with inhibitor, emphysema induction; type: in vivo, mouse; details: for Emphysema: 10 days
Source text: as §1
(§2) The method used for in vivo evaluation involved injection of a test solution into the trachea, or directly into one bronchus. In general, the method of Hayes et al J. Pathol, 117, 1-14 (1975) was used. A fine teflon tubing was connected to a pipette and inserted into the trachea after the animals were lightly anesthetized by IP injection. The contents of the pipette were then ejected. […] It was further determined that instillation of 40 ug of PPE in the same volume causes an unambigous emphysematous lesion which is restricted to the instilled lobe. After 7 to 10 days to allow inflamation to subside, the animals were sacrificed followed by exsanguination via the descending aorta. PPE was used rather than HLE to produce the lesion because emphysema developes over a much shorter period of time. Emphysema then was induced under acute condition so that the effects of the compounds tested could be investigated under the time constraints of a laboratory procedure. PPE with an animal model has been used in research in the past to study other, unrelated, inhibitors. (Bergeson, S. H. et al., European Patent No. 0189305 (1986).
Animals were also used to evaluate the effect of simultaneous intratracheal installation of PPE with the above inhibitor compound. The ICR mice in this experiment were used to evaluate the effect of the inhibitor in preventing emphysema induction. Table IX below illustrates the results of these tests:
All animals were sacrificed ten days after instillation.

[6] = tested on: Elastase-induced Emphysema in the Mouse; test: Protection against elastase-induced emphysema in the mouse, lung histology; type: in vivo
Source text: as §1, §2
In view of the fact that two tenths umoles of inhibitor is 100 times of the amount of the inhibitor necessary to inhibit the 40 ug of elastase in vitro, dosages were kept in the range of 1 to 10 umoles of inhibitor.
*Elastase: 20 ul containing 40 ug pancreatic elastase
As noted above, the method of in vivo testing is a modification of that of Hayes et al. However, the test solutions are inserted past the vocal chords into one bronchus by resistance. It was established initially that 20 ul of a solution of PPE (2 milligrams per milliter in saline) would create a reliable and unambigous emphysematous lesion. It should also be noted that the animals were scored for the presence of absence of such a lesion in any lobe without regard to the severity of the lesion.

[7] = 1 umole, simultaneous administration, n=4
[8] = 5 umoles, 30 min, then elastase, n=3
[9] = 10 umoles, 1 hr, then elastase, n=7
[10] = 10 umoles, 2 hr, then elastase, n=6
[11] = 10 umoles, 3 hr, then elastase, n=2

Sequence of Porcine pancreatic elastase (PPE) (P00772 27-266): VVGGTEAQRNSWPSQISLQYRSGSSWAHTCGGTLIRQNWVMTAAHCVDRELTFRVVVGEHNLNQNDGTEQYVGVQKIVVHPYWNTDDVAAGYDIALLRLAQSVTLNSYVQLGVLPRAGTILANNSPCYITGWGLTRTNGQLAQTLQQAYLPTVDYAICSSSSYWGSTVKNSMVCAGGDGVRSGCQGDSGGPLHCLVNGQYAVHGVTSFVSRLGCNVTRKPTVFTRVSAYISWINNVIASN

In the case of `c1c[nH]cn1` [imidazole], the “thromboxane synthetase inhibition (in words)” value [1] is given as “inhibitor of thromboxane synthetease”.

In the case of `CCC[C@H](NC(=O)n1ccnc1)C(=O)OC` [Compound 5, Table I, L-N-(Imidazol-1-ylcarbonyl)norvaline Methyl Ester], the “0.2 umoles inhibitor relative to amount necessary to inhibit 40 ug elastase in vitro” value [2] is reported as 100 times, the “effectiveness against HLE relative to PPE” value ([3]; HLE vs PPE in vitro) is reported as “about eighty” and the “Inhibition of HLE (in words)” value ([3]; listed as L-norvaline azolide) is reported as “highly effective”. For the same compound, the “Survival (in words)” value [4] was “all animals survived”, the abnormal pulmonary pathology [4] was “no animals showed abnormal pulmonary pathology” and the Emphysema ([5]; IT 1 umole inhibitor, no PPE) was “No”. For the same compound, the Emphysema ([5]; IT 34 ug PPE + 1 umole inhibitor) was “No”, the “Prevention of emphysema (in words)” value ([5]; given simultaneously with PPE) was “prevented emphysema” and the “Mouse Lung Histology, Emphysematous” value [6, 7] was 0. For the same compound, the “Mouse Lung Histology, Normal” value [6, 7] was 4, the “Mouse Lung Histology, Emphysematous” value [6, 8] was 0 and the “Mouse Lung Histology, Normal” value [6, 8] was 3. For the same compound, the “Mouse Lung Histology, Emphysematous” value [6, 9] was 5, the “Mouse Lung Histology, Normal” value [6, 9] was 2 and the “Mouse Lung Histology, Emphysematous” value [6, 10] was 6. The “Mouse Lung Histology, Normal” value [6, 10] was 0, the “Mouse Lung Histology, Emphysematous” value [6, 11] was 2 and the “Mouse Lung Histology, Normal” value [6, 11] was 0. For the same compound, the “Mouse Lung Histology, Emphysematous” value ([6]; 10 umoles, no elastase, n=7) was 0, the “Mouse Lung Histology, Normal” value ([6]; 10 umoles, no elastase, n=7) was 7 and the “tolerance of inhibitor doses” value ([6]; all mice, all doses) was “all mice treated tolerated all doses”. The “effect on PPE in the animal model (in words)” value ([6]; mouse, in vivo) was “block the effects of PPE” and the toxic side effects ([6]; mouse, in vivo) was “devoid of any toxic side effects”.
